ChEMBL document CHEMBL6103599, “Design of Potent Menin-KMT2A Interaction Inhibitors with Improved In Vitro ADME Properties and Reduced hERG Affinity” (ACS Med Chem Lett, 2025)

Tested on: not listed separately
Assay: Inhibition of His6-tagged MEN1 458-551 deletion A5T mutant (2 to 583 residues)/MLL (unknown origin) transfected in Escherichia coli BL21 (DE3) protein-protein interaction by TR-FRET assay
Parameters: species or system Homo sapiens
Conditions: not given

| Structure (SMILES) | IC50 |
| --- | --- |
| CCN(C(=O)c1cc(F)ccc1Oc1cncnc1N1CC2(CCN(C[C@H]3CC[C@H](NS(=O)(=O)CC)CC3)CC2)C1)C(C)C [REVUMENIB] | 0.149 nM |
| CCN(C(=O)c1cc(F)ccc1Oc1cncnc1N1CC2(CCN(C(=O)C34CC5CC(CC3C5)C4)CC2)C1)C(C)C | 8 nM |
| CC1(CN2CCC3(CC2)CN(c2ncnnc2Oc2ccc(F)cc2C(=O)N2CCOCC2)C3)CC1 | 62 nM |
| CCN(C(=O)c1cc(F)ccc1Oc1cncnc1N1CC2(CCN(Cc3ccc(C#N)cc3)CC2)C1)C(C)C | 12 nM |
| CC1(CN2CCC3(CC2)CN(c2ncnnc2Oc2ccc(F)cc2CN2CCOCC2=O)C3)CC1 | 5 nM |
| C[C@@H]1CCC(=O)N1Cc1cc(F)ccc1Oc1nncnc1N1CC2(CCN(CC3(C)CC3)CC2)C1 | 4 nM |
| C[C@@H]1CCCCN1C(=O)c1cc(F)ccc1Oc1nncnc1N1CC2(CCN(CC3(C)CC3)CC2)C1 | 20 nM |
| CCN(C(=O)c1cc(F)ccc1Oc1cncnc1N1CC2(CCN(C[C@@H](O)C(F)(F)F)CC2)C1)C(C)C | 33 nM |
| C[C@@H]1CCCN1C(=O)c1cc(F)ccc1Oc1nncnc1N1CC2(CCN(CC3(C)CC3)CC2)C1 | 6 nM |
| CCN(C(=O)c1cc(F)ccc1Oc1cncnc1N1CC2(CCN(CC3CCCCC3)CC2)C1)C(C)C | 8 nM |
| CCC1(CN2CCC3(CC2)CN(c2ncnnc2Oc2ccc(F)cc2CN2C(=O)COC[C@H]2C)C3)CC1 | 5 nM |
| C[C@@H]1COC[C@@H](C)N1C(=O)c1cc(F)ccc1Oc1nncnc1N1CC2(CCN(CC3(C)CC3)CC2)C1 | 23 nM |
| CC1(CN2CCC3(CC2)CN(c2ncnnc2Oc2ccc(F)cc2CN2C(=O)CC4CC42)C3)CC1 (racemic) | 6 nM |
| CCN(C(=O)c1cc(F)ccc1Oc1nncnc1N1CC2(CCN(CC3(C)CC3)CC2)C1)C(C)C | 10 nM |

Tested on: not listed separately
Assay: Volume of distribution at steady state in male CD-1 mouse at 1 mg/kg, iv measured after 8 hrs by LC-MS/MS analysis
Format: ADME, organism-based
Conditions: in vivo, read-out: Vdss

| Structure (SMILES) | Vd |
| --- | --- |
| C[C@@H]1CCC(=O)N1Cc1cc(F)ccc1Oc1nncnc1N1CC2(CCN(CC3(C)CC3)CC2)C1 | 5.48 L/kg |
| CC1(CN2CCC3(CC2)CN(c2ncnnc2Oc2ccc(F)cc2CN2C(=O)CC4CC42)C3)CC1 (racemic) | 4.14 L/kg |
| CCN(C(=O)c1cc(F)ccc1Oc1nncnc1N1CC2(CCN(CC3(C)CC3)CC2)C1)C(C)C | 14.1 L/kg |

Target: Voltage-gated inwardly rectifying potassium channel KCNH2 (Homo sapiens, UniProt Q12809)
Assay: Inhibition of hERG expressed in CHO cells
Format: toxicity, cell-based
Conditions: not given

Sequence of Voltage-gated inwardly rectifying potassium channel KCNH2 (Q12809 whole entry): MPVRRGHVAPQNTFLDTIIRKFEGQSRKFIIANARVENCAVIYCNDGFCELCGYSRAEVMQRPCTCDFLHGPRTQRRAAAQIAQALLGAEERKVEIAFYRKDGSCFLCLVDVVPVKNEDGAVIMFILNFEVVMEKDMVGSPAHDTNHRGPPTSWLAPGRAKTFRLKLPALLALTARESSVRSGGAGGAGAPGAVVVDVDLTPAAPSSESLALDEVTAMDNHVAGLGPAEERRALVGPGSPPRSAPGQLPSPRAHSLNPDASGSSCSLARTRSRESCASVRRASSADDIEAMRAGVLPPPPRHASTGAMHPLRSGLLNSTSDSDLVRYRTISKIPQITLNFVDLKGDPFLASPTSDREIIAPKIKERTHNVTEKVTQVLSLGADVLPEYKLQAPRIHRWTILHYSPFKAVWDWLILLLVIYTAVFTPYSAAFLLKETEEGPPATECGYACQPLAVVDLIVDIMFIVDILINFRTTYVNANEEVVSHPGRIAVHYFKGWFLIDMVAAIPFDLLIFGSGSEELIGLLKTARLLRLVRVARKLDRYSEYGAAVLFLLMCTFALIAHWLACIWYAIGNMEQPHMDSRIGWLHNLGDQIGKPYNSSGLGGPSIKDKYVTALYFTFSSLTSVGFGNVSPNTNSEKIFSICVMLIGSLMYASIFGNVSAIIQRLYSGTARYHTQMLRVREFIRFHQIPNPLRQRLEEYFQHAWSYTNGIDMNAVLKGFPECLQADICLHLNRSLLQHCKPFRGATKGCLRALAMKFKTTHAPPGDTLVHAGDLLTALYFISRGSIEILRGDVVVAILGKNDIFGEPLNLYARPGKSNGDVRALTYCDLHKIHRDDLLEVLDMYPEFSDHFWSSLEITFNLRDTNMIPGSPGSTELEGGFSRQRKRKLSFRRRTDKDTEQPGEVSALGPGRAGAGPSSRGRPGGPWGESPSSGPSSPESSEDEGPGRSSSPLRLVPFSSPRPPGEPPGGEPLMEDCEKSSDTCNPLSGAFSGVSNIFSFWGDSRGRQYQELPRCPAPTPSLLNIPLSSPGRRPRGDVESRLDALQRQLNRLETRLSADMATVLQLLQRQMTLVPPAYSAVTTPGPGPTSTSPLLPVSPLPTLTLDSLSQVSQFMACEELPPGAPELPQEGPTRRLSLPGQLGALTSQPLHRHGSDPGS

| Structure (SMILES) | IC50 |
| --- | --- |
| CCN(C(=O)c1cc(F)ccc1Oc1cncnc1N1CC2(CCN(C[C@H]3CC[C@H](NS(=O)(=O)CC)CC3)CC2)C1)C(C)C [REVUMENIB] | 5000 nM |
| CCN(C(=O)c1cc(F)ccc1Oc1cncnc1N1CC2(CCN(C(=O)C34CC5CC(CC3C5)C4)CC2)C1)C(C)C | > 100000 nM |
| CC1(CN2CCC3(CC2)CN(c2ncnnc2Oc2ccc(F)cc2C(=O)N2CCOCC2)C3)CC1 | 46000 nM |
| CCN(C(=O)c1cc(F)ccc1Oc1cncnc1N1CC2(CCN(Cc3ccc(C#N)cc3)CC2)C1)C(C)C | < 1000 nM |
| CCN(C(=O)c1cc(F)ccc1Oc1cncnc1N1CC2(CCN(CC3CCCCC3)CC2)C1)C(C)C | 3500 nM |
| CCN(C(=O)c1cc(F)ccc1Oc1nncnc1N1CC2(CCN(CC3(C)CC3)CC2)C1)C(C)C | 28000 nM |

Tested on: not listed separately
Assay: Half life in male CD-1 mouse at 1 mg/kg, iv measured after 8 hrs by LC-MS/MS analysis
Format: ADME, organism-based
Conditions: in vivo

| Structure (SMILES) | half-life |
| --- | --- |
| C[C@@H]1CCC(=O)N1Cc1cc(F)ccc1Oc1nncnc1N1CC2(CCN(CC3(C)CC3)CC2)C1 | 1.77 h |
| CC1(CN2CCC3(CC2)CN(c2ncnnc2Oc2ccc(F)cc2CN2C(=O)CC4CC42)C3)CC1 (racemic) | 0.64 h |
| CCN(C(=O)c1cc(F)ccc1Oc1nncnc1N1CC2(CCN(CC3(C)CC3)CC2)C1)C(C)C | 2.22 h |

Tested on: not listed separately
Assay: Metabolic stability in human liver microsomes assessed as clearance incubated for 20 mins by LC-MS/MS analysis
Format: ADME, Microsome
Conditions: read-out: CLH

| Structure (SMILES) | CLint scaled |
| --- | --- |
| CC1(CN2CCC3(CC2)CN(c2ncnnc2Oc2ccc(F)cc2CN2C(=O)CC4CC42)C3)CC1 (racemic) | 4 mL/min/kg |

Tested on: not listed separately
Assay: Metabolic stability in human hepatocytes assessed as clearance by LC-MS analysis
Format: ADME, cell-based, Hepatocyte
Conditions: read-out: CLH

| Structure (SMILES) | CLint scaled |
| --- | --- |
| CC1(CN2CCC3(CC2)CN(c2ncnnc2Oc2ccc(F)cc2C(=O)N2CCOCC2)C3)CC1 | 6 mL/min/kg |
| CC1(CN2CCC3(CC2)CN(c2ncnnc2Oc2ccc(F)cc2CN2CCOCC2=O)C3)CC1 | 6 mL/min/kg |
| C[C@@H]1CCC(=O)N1Cc1cc(F)ccc1Oc1nncnc1N1CC2(CCN(CC3(C)CC3)CC2)C1 | 3 mL/min/kg |
| C[C@@H]1CCCCN1C(=O)c1cc(F)ccc1Oc1nncnc1N1CC2(CCN(CC3(C)CC3)CC2)C1 | 9 mL/min/kg |
| C[C@@H]1CCCN1C(=O)c1cc(F)ccc1Oc1nncnc1N1CC2(CCN(CC3(C)CC3)CC2)C1 | 27 mL/min/kg |
| CCC1(CN2CCC3(CC2)CN(c2ncnnc2Oc2ccc(F)cc2CN2C(=O)COC[C@H]2C)C3)CC1 | 6 mL/min/kg |
| C[C@@H]1COC[C@@H](C)N1C(=O)c1cc(F)ccc1Oc1nncnc1N1CC2(CCN(CC3(C)CC3)CC2)C1 | 7 mL/min/kg |
| CC1(CN2CCC3(CC2)CN(c2ncnnc2Oc2ccc(F)cc2CN2C(=O)CC4CC42)C3)CC1 (racemic) | 4 mL/min/kg |
| CCN(C(=O)c1cc(F)ccc1Oc1nncnc1N1CC2(CCN(CC3(C)CC3)CC2)C1)C(C)C | 6 mL/min/kg |

Tested on: not listed separately
Assay: Clearance in male CD-1 mouse at 1 mg/kg, iv measured after 8 hrs by LC-MS/MS analysis
Format: ADME, organism-based
Conditions: in vivo

| Structure (SMILES) | clearance |
| --- | --- |
| C[C@@H]1CCC(=O)N1Cc1cc(F)ccc1Oc1nncnc1N1CC2(CCN(CC3(C)CC3)CC2)C1 | 51.6 mL/min/kg |
| CC1(CN2CCC3(CC2)CN(c2ncnnc2Oc2ccc(F)cc2CN2C(=O)CC4CC42)C3)CC1 (racemic) | 104 mL/min/kg |
| CCN(C(=O)c1cc(F)ccc1Oc1nncnc1N1CC2(CCN(CC3(C)CC3)CC2)C1)C(C)C | 129 mL/min/kg |

Tested on: not listed separately
Assay: Apparent permeability across apical to basolateral side in MDR1 knockout dog MDCKII cells incubated for 2 hrs by LC-MS/MS analysis
Format: ADME, cell-based, Canis lupus familiaris, MDCK-II
Conditions: MDCK

| Structure (SMILES) | Papp A→B at 2 h |
| --- | --- |
| CC1(CN2CCC3(CC2)CN(c2ncnnc2Oc2ccc(F)cc2C(=O)N2CCOCC2)C3)CC1 | 4 ×10⁻⁶ cm/s |
| CC1(CN2CCC3(CC2)CN(c2ncnnc2Oc2ccc(F)cc2CN2CCOCC2=O)C3)CC1 | 8 ×10⁻⁶ cm/s |
| C[C@@H]1CCC(=O)N1Cc1cc(F)ccc1Oc1nncnc1N1CC2(CCN(CC3(C)CC3)CC2)C1 | 9 ×10⁻⁶ cm/s |
| C[C@@H]1CCCCN1C(=O)c1cc(F)ccc1Oc1nncnc1N1CC2(CCN(CC3(C)CC3)CC2)C1 | 21 ×10⁻⁶ cm/s |
| C[C@@H]1CCCN1C(=O)c1cc(F)ccc1Oc1nncnc1N1CC2(CCN(CC3(C)CC3)CC2)C1 | 23 ×10⁻⁶ cm/s |
| CCC1(CN2CCC3(CC2)CN(c2ncnnc2Oc2ccc(F)cc2CN2C(=O)COC[C@H]2C)C3)CC1 | 29 ×10⁻⁶ cm/s |
| C[C@@H]1COC[C@@H](C)N1C(=O)c1cc(F)ccc1Oc1nncnc1N1CC2(CCN(CC3(C)CC3)CC2)C1 | 8 ×10⁻⁶ cm/s |
| CC1(CN2CCC3(CC2)CN(c2ncnnc2Oc2ccc(F)cc2CN2C(=O)CC4CC42)C3)CC1 (racemic) | 9 ×10⁻⁶ cm/s |
| CCN(C(=O)c1cc(F)ccc1Oc1nncnc1N1CC2(CCN(CC3(C)CC3)CC2)C1)C(C)C | 35 ×10⁻⁶ cm/s |

Tested on: not listed separately
Assay: AUCinfinity in male CD-1 mouse at 1 mg/kg, iv measured after 8 hrs by LC-MS/MS analysis
Format: ADME, organism-based
Conditions: in vivo

| Structure (SMILES) | AUC(0-inf) |
| --- | --- |
| C[C@@H]1CCC(=O)N1Cc1cc(F)ccc1Oc1nncnc1N1CC2(CCN(CC3(C)CC3)CC2)C1 | 323 ng·h/mL |
| CC1(CN2CCC3(CC2)CN(c2ncnnc2Oc2ccc(F)cc2CN2C(=O)CC4CC42)C3)CC1 (racemic) | 160 ng·h/mL |
| CCN(C(=O)c1cc(F)ccc1Oc1nncnc1N1CC2(CCN(CC3(C)CC3)CC2)C1)C(C)C | 92 ng·h/mL |

Tested on: HL-60
Assay: Cytotoxicity against human HL-60 cells
Format: functional, cell-based
Conditions: not given

| Structure (SMILES) | IC50 |
| --- | --- |
| CCN(C(=O)c1cc(F)ccc1Oc1cncnc1N1CC2(CCN(C[C@H]3CC[C@H](NS(=O)(=O)CC)CC3)CC2)C1)C(C)C [REVUMENIB] | > 5000 nM |
| CCN(C(=O)c1cc(F)ccc1Oc1cncnc1N1CC2(CCN(C(=O)C34CC5CC(CC3C5)C4)CC2)C1)C(C)C | > 5000 nM |
| CCN(C(=O)c1cc(F)ccc1Oc1cncnc1N1CC2(CCN(Cc3ccc(C#N)cc3)CC2)C1)C(C)C | > 5000 nM |
| CCN(C(=O)c1cc(F)ccc1Oc1cncnc1N1CC2(CCN(C[C@@H](O)C(F)(F)F)CC2)C1)C(C)C | > 5000 nM |
| CCN(C(=O)c1cc(F)ccc1Oc1cncnc1N1CC2(CCN(CC3CCCCC3)CC2)C1)C(C)C | > 5000 nM |

Tested on: MV4-11
Assay: Antiproliferative activity against human MV4-11 cells assessed as cell growth inhibition measured after 7 days by CellTiter-Glo assay
Format: functional, cell-based
Conditions: MV4-11, 168 h

| Structure (SMILES) | IC50 |
| --- | --- |
| CCN(C(=O)c1cc(F)ccc1Oc1cncnc1N1CC2(CCN(C[C@H]3CC[C@H](NS(=O)(=O)CC)CC3)CC2)C1)C(C)C [REVUMENIB] | 10 nM |
| CCN(C(=O)c1cc(F)ccc1Oc1cncnc1N1CC2(CCN(C(=O)C34CC5CC(CC3C5)C4)CC2)C1)C(C)C | 58 nM |
| CC1(CN2CCC3(CC2)CN(c2ncnnc2Oc2ccc(F)cc2C(=O)N2CCOCC2)C3)CC1 | 314 nM |
| CCN(C(=O)c1cc(F)ccc1Oc1cncnc1N1CC2(CCN(Cc3ccc(C#N)cc3)CC2)C1)C(C)C | 53 nM |
| CC1(CN2CCC3(CC2)CN(c2ncnnc2Oc2ccc(F)cc2CN2CCOCC2=O)C3)CC1 | 190 nM |
| C[C@@H]1CCC(=O)N1Cc1cc(F)ccc1Oc1nncnc1N1CC2(CCN(CC3(C)CC3)CC2)C1 | 40 nM |
| C[C@@H]1CCCCN1C(=O)c1cc(F)ccc1Oc1nncnc1N1CC2(CCN(CC3(C)CC3)CC2)C1 | 145 nM |
| CCN(C(=O)c1cc(F)ccc1Oc1cncnc1N1CC2(CCN(C[C@@H](O)C(F)(F)F)CC2)C1)C(C)C | 502 nM |
| C[C@@H]1CCCN1C(=O)c1cc(F)ccc1Oc1nncnc1N1CC2(CCN(CC3(C)CC3)CC2)C1 | 231 nM |
| CCN(C(=O)c1cc(F)ccc1Oc1cncnc1N1CC2(CCN(CC3CCCCC3)CC2)C1)C(C)C | 23 nM |
| CCC1(CN2CCC3(CC2)CN(c2ncnnc2Oc2ccc(F)cc2CN2C(=O)COC[C@H]2C)C3)CC1 | 21 nM |
| C[C@@H]1COC[C@@H](C)N1C(=O)c1cc(F)ccc1Oc1nncnc1N1CC2(CCN(CC3(C)CC3)CC2)C1 | 48 nM |
| CC1(CN2CCC3(CC2)CN(c2ncnnc2Oc2ccc(F)cc2CN2C(=O)CC4CC42)C3)CC1 (racemic) | 112 nM |
| CCN(C(=O)c1cc(F)ccc1Oc1nncnc1N1CC2(CCN(CC3(C)CC3)CC2)C1)C(C)C | 19 nM |

Tested on: not listed separately
Assay: Hepatic extraction ratio in male CD-1 mouse at 1 mg/kg, iv measured after 8 hrs by LC-MS/MS analysis
Format: ADME, organism-based
Conditions: in vivo, read-out: ERH

| Structure (SMILES) | hepatic extraction ratio at 8 h |
| --- | --- |
| C[C@@H]1CCC(=O)N1Cc1cc(F)ccc1Oc1nncnc1N1CC2(CCN(CC3(C)CC3)CC2)C1 | 0.574 |
